Laboratory results reported in ChEMBL document CHEMBL1201862, “PubChem BioAssay data set” (2004).
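1) Cells in 96-well plates. 2) Compound, 48 h, 5 concentrations. 3) Linear interpolation between surrounding doses. 4) Unreached endpoint = highest concentration. The concentration for 50% growth inhibition is given as GI50.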 Activity calls are given as the source filed them. No stated cut-off is given here; in the data, active = GI50 up to about 1.1 µM and inactive = higher.

Tests used:
Assay in all cases: NCI tumour cell line growth inhibition, 48 h
[1] = test system: RXF 631
[2] = test system: DLD-1
[3] = test system: DMS-114
[4] = test system: SNB-78
[5] = test system: M19-MEL
[6] = test system: LXFL 529
[7] = test system: KM-20L2
[8] = test system: BT-549
[9] = test system: Hs-578T

Measured: GI50

Cn1cc(NC(=O)c2cc(NC(=O)CCCCCC(=O)Nc3cc(C(=O)Nc4cc(C(=O)NCCC(=N)N)n(C)c4)n(C)c3)cn2C)cc1C(=O)NCCC(=N)N
inactive: [1] > 100 µM | [2] > 100 µM | [3] 33 µM | [4] > 100 µM | [5] 15.2 µM | [6] > 100 µM | [7] > 100 µM

O=C(c1ccccc1)N1C2C3CC(OCc4ccccc4)(OCc4ccccc4)C(O3)C21 (configuration not stated)
inactive: [1] > 100 µM | [2] > 100 µM | [3] > 100 µM | [4] > 100 µM | [5] > 100 µM | [6] > 100 µM | [7] > 100 µM

COc1cc2c(c(OC)c1OC)-c1ccc(SC)c(=O)cc1[C@@H](NC(=O)c1cccc([N+](=O)[O-])c1)CC2
active: [1] 0.0164 µM | [2] < 0.01 µM | [4] 0.0243 µM | [5] 0.0296 µM | [6] 0.0239 µM | [7] 0.0172 µM

CNC1=Nc2ccc(Cl)cc2C(OP(=O)(N2CCOCC2)N2CCOCC2)=NC1
inactive: [1] > 100 µM | [2] > 100 µM | [3] > 100 µM | [4] > 100 µM | [5] > 100 µM | [6] > 100 µM | [7] > 100 µM

CN(C=O)/C=C/c1cc(O)ccc1O
inactive: [1] 47.5 µM | [2] 20 µM | [3] 45.9 µM | [4] 30.8 µM | [5] 20.8 µM | [6] 18.8 µM | [7] > 46 µM

CC(=O)/C=C/c1cccc(N=S)c1
inactive: [1] 39 µM | [2] 4.88 µM | [3] 23 µM | [4] 32.8 µM | [5] 6.25 µM | [6] 5.78 µM | [7] 13.8 µM

C1CN1c1nc(N2CC2)nc(N2CC2)n1
inactive: [8] 15.9 µM | [1] 11.3 µM | [2] 18.4 µM | [9] 26.5 µM | [3] 2.99 µM | [5] 12.3 µM | [6] 13.9 µM | [7] 15.1 µM

COC1(C)CNCC(C)(C)NC(=O)C(C)(OC)CNCC(C)(C)NC1=O (configuration not stated)
inactive: [1] > 100 µM | [2] > 100 µM | [3] > 100 µM | [4] > 100 µM | [5] > 100 µM | [6] > 100 µM | [7] > 100 µM

CC1=CC(O)(c2ccc(-c3ccccc3Cl)cc2)OC1=O (configuration not stated)
inactive: [1] > 100 µM | [2] > 100 µM | [3] > 100 µM | [5] > 100 µM | [6] > 100 µM | [7] > 100 µM

CC(=O)c1ccc(NC(=O)C(=O)C(C(=O)/C=C/c2ccccc2)C2OC(=O)c3ccccc32)cc1 (configuration not stated)
inactive: [1] > 100 µM | [2] > 100 µM | [4] > 100 µM | [5] > 100 µM | [6] 96.6 µM | [7] > 100 µM

COC(=O)c1cccc2cccc(C(=O)Nc3ccc(C)cc3C)c12
inactive: [1] > 100 µM | [2] > 100 µM | [3] > 100 µM | [4] > 100 µM | [5] > 100 µM | [6] > 100 µM | [7] > 100 µM

CCC(=O)c1c(NOC2OC(COC(C)=O)C(OC(C)=O)C(OC(C)=O)C2OC(C)=O)nc(OC)n(C)c1=O (configuration not stated)
inactive: [1] > 100 µM | [2] > 100 µM | [3] > 100 µM | [4] > 100 µM | [5] > 100 µM | [6] > 100 µM | [7] > 100 µM

Cc1ccc(NC(=O)CCc2n[nH]c(=S)o2)cc1
inactive: [1] > 100 µM | [2] > 100 µM | [3] > 100 µM | [4] > 100 µM | [5] > 100 µM | [6] > 100 µM | [7] > 72.1 µM

CC(=O)Nc1ccccc1Sc1ccccc1
inactive: [1] > 100 µM | [3] > 100 µM | [4] > 100 µM | [5] > 100 µM | [6] > 100 µM | [7] > 100 µM

CC(C)(C)OC(=O)c1cccnc1/C=N/O
inactive: [1] > 100 µM | [2] > 100 µM | [3] > 100 µM | [4] > 100 µM | [5] > 100 µM | [6] > 100 µM | [7] 51.4 µM

COC(=O)C(CBr)CBr
inactive: [8] 2.65 µM | [1] 3.05 µM | [2] 2.04 µM | [9] 4.65 µM | [3] 2.06 µM | [4] 1.79 µM | [5] 3.21 µM | [6] 1.79 µM | [7] 6.76 µM

CCCCCCC(O)C/C=C/CCCCCC/C(C(=O)OC)=C(/O)C(=O)OCC (configuration not stated)
inactive: [1] > 100 µM | [2] > 100 µM | [3] > 100 µM | [4] > 100 µM | [5] > 100 µM | [6] > 100 µM
